Here are results for three compounds from ChEMBL document CHEMBL5321265, “Polyketides with Anti-Inflammatory Activity from Trichoderma koningiopsis, a Rhizosphere Fungus from the Medicinal Plant Polygonum paleaceum” (J Nat Prod, 2023).

The subject of test [1] is BV-2. Description: Anti-inflammatory activity against LPS-induced mouse BV-2 cells assessed as increase in cell viability preincubated with compound for 1 hrs followed by LPS stimulation and measured after 24 hrs by CCK-8 method. The format is functional, cell-based. To be noted: dose 2.5-20 µM, time 25.0 hrs.
The subject of test [2] is BV-2. Put plainly: Anti-inflammatory activity in mouse BV-2 cells assessed as inhibition of LPS-induced NO production preincubated with compound for 1 hrs followed by LPS stimulation and measured after 24 hrs by Griess reagent based assay. The format is functional, cell-based.

Take `CCCCCC[C@@H]1O[C@@]23CC[C@@H](O)C(=O)[C@H]2CC[C@@H]1O3`: the Activity result in test [1] is “Dose-Dependent Effect”. For the same compound, the half-inhibitory concentration (IC50) in test [2] turned out to be 14 µM.
With `CCCCCC[C@@H]1O[C@]23O[C@H]1CC=C2C(=O)CC[C@H]3O`, the Activity entry in test [1] was “Dose-Dependent Effect”. Further, the IC50 in test [2] was determined as 8.9 µM.
For the compound `CCCCCC[C@H]1O[C@]23O[C@H]1CC[C@@H]2C(=O)CC[C@H]3O`, the Activity result in test [1] was “Dose-Dependent Effect”. Further, the IC50 in test [2] turned out to be 3 µM.
